Data reported in PMC13076199, “Convergent evolution of hexenal isomerases in Lepidoptera and plants” (Nature Ecology & Evolution, 2026).

Target: T1, MsHi-1 (Manduca sexta, UniProt Z9A1Z6DDJ7)
T1 construct: coding region in pGEX-4T-1, N-terminal GST fusion, E. coli BL21 (DE3), GST Sepharose
Assay: Hi activity with and without added FAD, SPME-GC-qToF-MS
Format: biochemical
Details: 1 mM FAD, 0.2 mM Z3AL, 20 mM Tris-HCl pH 7.0, 20 µg BSA

SMILES: Cc1cc2nc3c(=O)[nH]c(=O)nc-3n(C[C@H](O)[C@H](O)[C@H](O)COP(=O)(O)OP(=O)(O)OC[C@H]3O[C@@H](n4cnc5c(N)ncnc54)[C@H](O)[C@@H]3O)c2cc1C [flavin adenine dinucleotide]
- Hi activity with and without added FAD, SPME-GC-qToF-MS: addition of FAD to enzymatic reactions moderately increased Hi activity across all tested homologues
